Results taken from patent publication US20250353816A1, “QUINOLINES AS MODULATORS OF POLRMT” (Pretzel Therapeutics, Inc., priority 2024, published 2025).

Molecular target: POLRMT (Homo sapiens (Human), UniProt O00411)
Assay: homogeneous TR-FRET assay of mitochondrial transcription (inhibition of POLRMT)
Assay type: biochemical
Details: 7.5 nM POLRMT, 15 nM TFB2M, 30 nM TFAM, 60 minutes at 37° C.
Procedure: The inhibitory activity of the compounds of the present invention against POLRMT were determined by assays based on Bergbrede, T., et al., “An adaptable high-throughput technology enabling the identification of specific transcription modulators,” SLAC Discov., 22, 378-386 (2017).
The ability of some compounds of the present invention to inhibit POLRMT were determined in a homogeneous TR-FRET Assay using high-throughput screening in a 384-well plate format. This method is used to monitor the activity of mitochondrial transcription through measurement of its product, a 407 bp long RNA transcript. Detection of the product is facilitated by hybridization of two DNA-oligonucleotide probes to specific and adjacent sequences within the RNA product sequence. Upon annealing of the probes, two fluorophores are coupled directly to an acceptor nucleotide probe (ATTO647, 5′), or introduced via a coupled streptavidin with a biotinylated donor nucleotide probe (Europium cryptate) that is brought into sufficient proximity to serve as a fluorescence-donor-acceptor pair. Thus, a FRET signal at 665 nm is generated upon excitation at 340 nm.
Proteins used as transcription factors (POLRMT: NP_005026.3, TFAM: NP_003192.1, TFB2M: NP_071761.1) are diluted from their stocks to working concentrations of 1 μM, 20 μM and 4 μM respectively, in a dilution buffer containing 20 mM Tris-HCl (pH 8.0), 200 mM NaCl, 10% (v/v) glycerol, 1 mM Dithiothreitol (DTT), 0.5 mM EDTA.
DNA template is a pUC18 plasmid with the mitochondrial light strand promotor sequence (1-477) cloned between HindIII and BamHI sites. The DNA template is restriction linearized proximal to the promotor 3′-end (pUC-LSP).
The reaction mixture (10 uL) containing 7.5 nM POLRMT, 15 nM of TFB2M, 30 nM of TFAM, 0.5 nM of DNA template and 500 μM nucleotide triphosphate mix (NTPs) in a reaction buffer (containing 10 mM Tris-HCl (pH 7.5), 10 mM MgCl2, 40 mM NaCl, 10 mM DTT, 0.005% (w/v) Tween-20, 160 units/ml Rnase inhibitor and 0.1 mg/mL BSA) are dispensed to compounds in microplates, using a Thermo Multidrop® dispenser, and incubated at 37° C. in a VWR INCU-Line incubator for 60 minutes after mixing. No nucleotide triphosphate mix is added to negative control samples. Microplates with compounds to be tested in the assay are prepared from 10 mM compound stocks in 100% DMSO, equal amounts of DMSO without any compound are added to positive control and negative control samples.
During the incubation, a mix of the detection reagents is prepared in a buffer such that the enzymatic reaction is terminated due to chelating of Mg-ions and increased ionic strength, containing 50 mM Tris-HCl (pH 7.5), 700 mM NaCl, 20 mM EDTA, and 0.01% (w/v) Tween-20. Europium-streptavidin is pre-incubated with a 200-fold molar excess of a random sequence oligonucleotide to block unspecific binding of oligo, for two hours at ambient temperature in the dark. Afterwards, the blocked Europium-streptavidin is kept on ice until use.
At the end of the enzymatic reaction time, 5 μL detection oligo mix in the detection buffer is added, and assay plates are mixed and kept at ambient temperature for one hour, protected from light. The concentration of the Acceptor nucleotide oligo (e.g., ATTO647N-5′-[…]-3′ (SEQ ID NO: 1)) and Donor nucleotide oligo (e.g., bio-5′-AACACATCTCT(-bio)GCCAAACCCCA-bio-3′ (SEQ ID NO: 2)) in each assay well is 1 nM, and 3 nM, respectively.
After incubation with oligo mix, 5 μL of pre-blocked Europium-streptavidin reagent is dispensed to each assay well, assay plates are again mixed and kept at ambient temperature for one hour, protected from light.
The generated signal is measured with BMG Pherastar microtiter plate reader with a TRF light unit, using excitation at 340 nm, an integration time of 200 μs, and a delay time of […], before detection at 620 nm and 665 nm. The ratio of donor- and acceptor-fluorescence is used as a measure of the generated transcript product (i.e. enzymatic activity).

POLRMT, sequence (O00411 42-1230): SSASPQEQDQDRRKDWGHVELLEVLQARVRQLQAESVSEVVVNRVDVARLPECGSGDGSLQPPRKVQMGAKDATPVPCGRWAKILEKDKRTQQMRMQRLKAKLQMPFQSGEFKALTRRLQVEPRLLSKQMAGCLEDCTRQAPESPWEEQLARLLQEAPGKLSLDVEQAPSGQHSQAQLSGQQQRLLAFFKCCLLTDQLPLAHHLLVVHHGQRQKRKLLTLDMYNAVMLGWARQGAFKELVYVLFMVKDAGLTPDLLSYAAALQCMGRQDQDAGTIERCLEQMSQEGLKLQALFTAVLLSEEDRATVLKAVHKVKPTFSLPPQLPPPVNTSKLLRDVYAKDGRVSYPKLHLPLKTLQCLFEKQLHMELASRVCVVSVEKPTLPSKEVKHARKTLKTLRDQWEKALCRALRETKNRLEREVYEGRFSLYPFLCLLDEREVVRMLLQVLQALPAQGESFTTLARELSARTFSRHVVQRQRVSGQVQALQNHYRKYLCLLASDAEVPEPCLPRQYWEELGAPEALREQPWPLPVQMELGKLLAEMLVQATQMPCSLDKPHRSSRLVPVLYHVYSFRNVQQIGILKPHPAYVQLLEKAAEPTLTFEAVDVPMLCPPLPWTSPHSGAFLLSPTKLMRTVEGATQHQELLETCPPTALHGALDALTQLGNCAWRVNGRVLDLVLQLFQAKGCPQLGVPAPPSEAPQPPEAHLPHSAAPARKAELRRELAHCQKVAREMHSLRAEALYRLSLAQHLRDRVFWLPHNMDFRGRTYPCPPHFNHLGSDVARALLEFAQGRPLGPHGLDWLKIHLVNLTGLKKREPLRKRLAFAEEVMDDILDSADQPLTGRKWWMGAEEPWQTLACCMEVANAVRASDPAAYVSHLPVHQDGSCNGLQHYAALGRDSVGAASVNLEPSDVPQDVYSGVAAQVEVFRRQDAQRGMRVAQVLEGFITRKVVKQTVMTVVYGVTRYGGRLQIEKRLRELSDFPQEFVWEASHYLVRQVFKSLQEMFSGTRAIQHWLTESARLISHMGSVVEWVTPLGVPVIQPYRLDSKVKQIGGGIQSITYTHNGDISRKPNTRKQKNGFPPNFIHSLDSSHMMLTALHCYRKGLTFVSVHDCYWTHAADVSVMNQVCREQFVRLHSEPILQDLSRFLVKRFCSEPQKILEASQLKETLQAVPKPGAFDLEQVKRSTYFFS

SMILES | IC50
Cc1ccccc1-c1ccnc2cc(CC(C)C(=O)N3CCCCC3)ccc12 (single isomer, unassigned) [Example 34, 2-methyl-1-(piperidin-1-yl)-3-(4-(o-tolyl)quinolin-7-yl)propan-1-one] | 2 µM
Cc1ccccc1-c1ccnc2cc(CC(C)C(=O)N3CCCCC3)ccc12 (single isomer, unassigned) [Example 35, 2-methyl-1-(piperidin-1-yl)-3-(4-(o-tolyl)quinolin-7-yl)propan-1-one] | 70 µM
Cc1ccccc1-c1ccnc2cc(C(C)CC(=O)N(C)C)ccc12 (single isomer, unassigned) [Example 37, N,N-dimethyl-3-(4-(o-tolyl)quinolin-7-yl)butanamide] | 79 µM
Cc1ccccc1-c1ccnc2cc(C(C)CC(=O)N(C)C)ccc12 (single isomer, unassigned) [Example 38, N,N-dimethyl-3-(4-(o-tolyl)quinolin-7-yl)butanamide] | 37 µM
Cc1ccccc1-c1ccnc2cc(NC(C)C(=O)N(C)C)ccc12 (single isomer, unassigned) [Example 48, N,N-dimethyl-2-((4-(o-tolyl)quinolin-7-yl)amino)propanamide] | > 100 µM
Cc1ccccc1-c1ccnc2cc(NC(C)C(=O)N(C)C)ccc12 (single isomer, unassigned) [Example 49, N,N-dimethyl-2-((4-(o-tolyl)quinolin-7-yl)amino)propanamide] | 10 µM
Cc1ccccc1-c1ccnc2cc(NC(C)C(=O)N3CCOCC3)ccc12 (single isomer, unassigned) [Example 50, 1-morpholino-2-((4-(o-tolyl)quinolin-7-yl)amino)propan-1-one] | 2 µM
Cc1ccccc1-c1ccnc2cc(NC(C)C(=O)N3CCOCC3)ccc12 (single isomer, unassigned) [Example 51, 1-morpholino-2-((4-(o-tolyl)quinolin-7-yl)amino)propan-1-one] | > 100 µM
Cc1ccccc1-c1ccnc2cc(NC(C)C(=O)N3CCCCC3)ccc12 (single isomer, unassigned) [Example 52, 1-(piperidin-1-yl)-2-((4-(o-tolyl)quinolin-7-yl)amino)propan-1-one] | > 100 µM
Cc1ccccc1-c1ccnc2cc(NC(C)C(=O)N3CCCCC3)ccc12 (single isomer, unassigned) [Example 53, 1-(piperidin-1-yl)-2-((4-(o-tolyl)quinolin-7-yl)amino)propan-1-one] | 3 µM
COC(=O)c1ccc2c(-c3ccccc3C)ccnc2c1 [Example 1, methyl 4-(o-tolyl)quinoline-7-carboxylate] | 3 µM
Cc1ccccc1-c1ccnc2cc(C(N)=O)ccc12 [Example 2, 4-(o-tolyl)quinoline-7-carboxamide] | > 100 µM
CNC(=O)c1ccc2c(-c3ccccc3C)ccnc2c1 [Example 3, N-methyl-4-(o-tolyl)quinoline-7-carboxamide] | 26 µM
Cc1ccccc1-c1ccnc2cc(C(=O)N(C)C)ccc12 [Example 4, N,N-dimethyl-4-(o-tolyl)quinoline-7-carboxamide] | > 100 µM
Cc1ccccc1-c1ccnc2cc(C(=O)N(C)Cc3ccccc3)ccc12 [Example 5, N-benzyl-N-methyl-4-(o-tolyl)quinoline-7-carboxamide] | > 100 µM
Cc1ccccc1-c1ccnc2cc(C(=O)NCc3ccccc3)ccc12 [Example 6, N-benzyl-4-(o-tolyl)quinoline-7-carboxamide] | 90 µM
Cc1ccccc1-c1ccnc2cc(C(=O)N3CCOCC3)ccc12 [Example 7, morpholino-[4-(o-tolyl)-7-quinolyl]methanone] | > 100 µM
Cc1ccccc1-c1ccnc2cc(C(=O)N3CCN(C)CC3)ccc12 [Example 8, (4-methylpiperazin-1-yl)-[4-(o-tolyl)-7-quinolyl]methanone] | > 100 µM
CC(=O)N1CCN(C(=O)c2ccc3c(-c4ccccc4C)ccnc3c2)CC1 [Example 9, 1-(4-(4-(o-tolyl)quinoline-7-carbonyl)piperazin-1-yl)ethan-1-one] | > 100 µM

SMILES | IC50
Cc1ccccc1-c1ccnc2cc(CO)ccc12 [Example 10, (4-(o-tolyl)quinolin-7-yl)methanol] | 50 µM
CC(=O)Nc1ccc2c(-c3ccccc3C)ccnc2c1 [Example 11, N-(4-(o-tolyl)quinolin-7-yl)acetamide] | 10 µM
Cc1ccccc1-c1ccnc2cc(CNC(=O)OC(C)(C)C)ccc12 [Example 12, tert-butyl ((4-(o-tolyl)quinolin-7-yl)methyl)carbamate] | 15 µM
Cc1ccccc1-c1ccnc2cc(CNC(=O)C3CCCC3)ccc12 [Example 13, N-((4-(o-tolyl)quinolin-7-yl)methyl)cyclopentanecarboxamide] | 29 µM
Cc1ccccc1-c1ccnc2cc(CNS(=O)(=O)c3ccccc3)ccc12 [Example 14, N-((4-(o-tolyl)quinolin-7-yl)methyl)benzenesulfonamide] | 68 µM
COC(=O)NCc1ccc2c(-c3ccccc3C)ccnc2c1 [Example 15, methyl ((4-(o-tolyl)quinolin-7-yl)methyl)carbamate] | 59 µM
Cc1ccccc1-c1ccnc2cc(N(C)C)ccc12 [Example 16, N,N-dimethyl-4-(o-tolyl)quinolin-7-amine] | 7 µM
Cc1ccccc1-c1ccnc2cc(CCO)ccc12 [Example 17, 2-(4-(o-tolyl)quinolin-7-yl)ethan-1-ol] | 10 µM
Cc1ccccc1-c1ccnc2cc(C(C)O)ccc12 (centres unmarked) [Example 18, 1-(4-(o-tolyl)quinolin-7-yl)ethan-1-ol] | 36 µM
COCc1ccc2c(-c3ccccc3C)ccnc2c1 [Example 19, 7-(methoxymethyl)-4-(o-tolyl)quinoline] | 5 µM
Cc1ccccc1-c1ccnc2cc(CN3CCOCC3)ccc12 [Example 20, 4-((4-(o-tolyl)quinolin-7-yl)methyl)morpholine] | > 100 µM
CC(=O)N1CCN(Cc2ccc3c(-c4ccccc4C)ccnc3c2)CC1 [Example 21, 1-(4-((4-(o-tolyl)quinolin-7-yl)methyl)piperazin-1-yl)ethan-1-one] | > 100 µM
Cc1ccccc1-c1ccnc2cc(CNS(C)(=O)=O)ccc12 [Example 22, N-((4-(o-tolyl)quinolin-7-yl)methyl)methanesulfonamide] | 72 µM
Cc1ccccc1-c1ccnc2cc(CN(C)S(=O)(=O)c3ccccc3)ccc12 [Example 23, N-methyl-N-((4-(o-tolyl)quinolin-7-yl)methyl)benzenesulfonamide] | > 100 µM
Cc1ccccc1-c1ccnc2cc(CN(C)C(=O)C3CCCC3)ccc12 [Example 24, N-methyl-N-((4-(o-tolyl)quinolin-7-yl)methyl)cyclopentanecarboxamide] | 10 µM
Cc1ccccc1-c1ccnc2cc(CN3CCCC3=O)ccc12 [Example 25] | > 100 µM
Cc1ccccc1-c1ccnc2cc(CN3CCCC3)ccc12 [Example 26, 7-(pyrrolidin-1-ylmethyl)-4-(o-tolyl)quinoline] | > 100 µM
COC(C)c1ccc2c(-c3ccccc3C)ccnc2c1 (centres unmarked) [Example 27, 7-(1-methoxyethyl)-4-(o-tolyl)quinoline] | 8 µM
Cc1ccccc1-c1ccnc2cc(CN3CCN(C)CC3)ccc12 [Example 28, 7-((4-methylpiperazin-1-yl)methyl)-4-(o-tolyl)quinoline] | > 100 µM
